Data: US10386375B2, “Methods and systems for the diagnosis and treatment of androgen disorders” (Function Promoting Therapies LLC, priority 2013, dated 2019)

Key:
SHBG = target: T1, SHBG (Homo sapiens, UniProt P04278); conditions: Model A, Vermeulen's model: equal affinity for each monomer in SHBG dimer; fixed model value; cited from earlier work
T1 sequence (P04278 30-402): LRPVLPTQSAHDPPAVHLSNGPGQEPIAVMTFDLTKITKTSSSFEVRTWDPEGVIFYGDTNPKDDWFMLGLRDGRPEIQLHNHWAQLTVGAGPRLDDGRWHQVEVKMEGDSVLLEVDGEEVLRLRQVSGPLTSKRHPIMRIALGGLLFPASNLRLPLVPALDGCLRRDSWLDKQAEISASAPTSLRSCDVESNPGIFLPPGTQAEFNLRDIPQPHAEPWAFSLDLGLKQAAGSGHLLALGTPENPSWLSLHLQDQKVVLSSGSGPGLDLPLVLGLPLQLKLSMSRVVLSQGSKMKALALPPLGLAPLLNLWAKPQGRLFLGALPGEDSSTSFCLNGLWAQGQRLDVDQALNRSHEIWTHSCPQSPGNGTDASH

[1] = Percent free testosterone calculated in serum samples from the TED trial; type: in vitro ADME, men
Protocol: Assessment of FT Concentrations in Clinical Trials. FT determined using the dynamic model developed in this study (cFTZBJ) and Vermeulen's equation (cFTV) (as implemented by Mazer, (Mazer 2009)) were compared with those measured using equilibrium dialysis in samples derived from randomized testosterone trials in men (Spitzer et al 2012) and women (Huang et al 2012). These samples had been collected in fasting state in the morning, stored at −80° C., and never thawed.
At baseline and after 12-weeks of testosterone or placebo administration, total testosterone concentrations were measured using LC-MS/MS and SHBG concentrations using a two-site immunofluorometric assay (DELFIA®, Perkin-Elmer, Waltham, Mass.) (21). FT was measured in the same samples by equilibrium dialysis(Bhasin et al 2012).
Application of new Multi-step Dynamic Binding Model with Complex Allostery to Clinical Trials Data. SHBG and albumin are predominantly the two proteins that bind testosterone with significant affinity; the binding affinities of transcortin and orosomucoid for testosterone are extremely low. […]

## C[C@]12CC[C@H]3[C@@H](CCC4=CC(=O)CC[C@@]43C)[C@@H]1CC[C@@H]2O [testosterone, 17-β-hydroxyandrost-4-en-3-one]
SHBG
  Kd: 1 nM
[1]; calculated with the new dynamic model (cFTZBJ), clinical trial samples
  fraction of circulating testosterone which is free: 2.9±0.4%
[1]; percent free testosterone calculated with Vermeulen's equation, as generally assumed
  % cFTV: 1.5±0.4%
